Results from patent US8435962B2, “Triacetyl-3-hydroxyphenyladenosine and its use for regulating blood fat” (Institute of Mataria Medica, Chinese Academy of Medical …, priority 2009, dated 2013).

Key:
[1] = system: hyperlipidemia rats; experiment: Effects on plasma lipid in hyperlipidemia rats (high-fat diet); type: in vivo, rat; settings: for FFA / HDL-C / HDL/LDL / LDL-C / TC / TG: 4 weeks;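 as to all read-outs here: rats kept on high-fat chow for 4 weeks before dosing, serum taken from abdominal aorta after a 12 h fast at end of treatment, controls given vehicle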
Procedure: (§2) After a week of accommodation, except control group (20 rat), all the rats (120 rats) were fed with high-fat laboratory chow.
(§3) After four weeks high-fat diet modeling, rats were treated with different drugs by intragastric administration. Control animals received an equal volume of vehicle.
(§4) At the end of 4 weeks drug treatment, animals were fasted for 12 hours before anesthetizing by intraperitoneal injection of pentobarbitale sodium (45 mg/kg), and anticoagulated by 100 U/kg heparin through caudal vein injection. Blood samples were collected from the abdominal aorta within 15 min, and serum was separated. Serum TC, TG, HDL-C, LDL-C, ALT, FFA were detected. Liver and the fat pad behind the belly were separated and weighed, the liver and retroperitoneal fat were weighed too. […] The left rats (10 rats each group) drug treatment was withdrawn while high-fat diet modeling continued. Two weeks later, blood sample was collected from the orbit, and serum TC, TG were detected.

[2] = system: hyperlipidemia rats; experiment: Effects on retroperitoneal fat weight of hyperlipidemic rats; type: in vivo, rat; settings: for Fat weight (retroperitoneal fat): hyperlipidemic rats, 4 weeks
Source text: (§1) Control animals received an equal volume of vehicle.

[3] = system: hyperlipidemia rats; experiment: Effects on hepatic SOD activity and MDA content of hyperlipidemia rats; type: in vivo, rat; settings: for hepatic MDA / hepatic SOD: 4 weeks
Source text: as §1

[4] = system: hyperlipidemia rats; experiment: Serum lipid of hyperlipidemia rats after withdrawal from drugs for 2 weeks; type: in vivo, rat; settings: for TC / TG: rats, 2 weeks after drug withdrawal, high-fat diet continued
Procedure: as §2, §3, §4

[5] = system: hyperlipidemia hamsters; experiment: Effects on plasma lipid in hyperlipidemia hamsters (high-fat diet); type: in vivo, hamster; settings: for HDL-C / HDL/LDL / LDL-C / TC / TG: 4 weeks;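 as to all read-outs here: hamsters given high-fat chow for four weeks, then dosed by gavage, plasma lipids measured in abdominal aortic blood after a 12 h fast, compared with vehicle-treated controls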
Procedure: (§5) After a week of accommodation, except control group (n=12) all the hamsters (n=72) were fed with high-fat laboratory chow.
as §3
(§6) At the end of 4 weeks drug treatment, animals were fasted for 12 hours (10 of each group). The next day, they were anesthetized by intraperitoneal injection of pentobarbitale sodium (45 mg/kg). Blood samples were collected from the abdominal aorta within 15 min, and plasma was separated. Plasma TC, TG, HDL-C, LDL-C, ALT, FFA were detected. Liver and the retroperitoneal fat were separated and weighed, the liver and fat index were calculated. Liver SOD and MDA were detected by kit after homogenized. The left hamsters (10 each group) drug treatment was withdrawn while high-fat diet modeling continued. Two weeks later, blood sample was collected from the orbit and serum TC and TG were detected.

[6] = system: hyperlipidemia hamsters; experiment: Effect on retroperitoneal fat of hyperlipidemia hamsters; type: in vivo, hamster
Procedure: as §5, §3, §6

[7] = system: hyperlipidemia hamsters; experiment: Effects on hepatic SOD activity and MDA concentration in hyperlipidemic hamsters' livers; type: in vivo, hamster; settings: for hepatic MDA / hepatic SOD: 4 weeks
Procedure: as §5, §3, §6

[8] = system: hyperlipidemia hamsters; experiment: Serum lipid level in hyperlipidemic hamsters after drug discontinuance (2 weeks); type: in vivo, hamster; settings: for TC / TG / serum lipid levels after drug discontinuance: hamsters; for TC / TG: 2 weeks after drug discontinuance, high-fat diet continued; for serum lipid levels after drug discontinuance: vs model group, in words
Procedure: as §5, §3, §6

[9] = system: hyperlipidemia hamsters; experiment: Effects on serum ALT activity in hyperlipidemic hamsters; settings: for ALT: hyperlipidemic hamsters, 4 weeks
Procedure: as §5, §3, §6

[10] = system: hyperlipidemia rats; experiment: Effects on liver weight and serum ALT activity of hyperlipidemia rats; settings: 4 weeks
Procedure: as §2, §3, §4

[11] = hyperlipidemia rats, 3 mg/kg intragastric
[12] = hyperlipidemia rats, 6 mg/kg intragastric
[13] = hyperlipidemia rats, 12 mg/kg intragastric

CC(=O)OC[C@H]1O[C@@H](n2cnc3c(Nc4cccc(O)c4)ncnc32)[C@H](OC(C)=O)[C@@H]1OC(C)=O [WS070117, O^2′,O^3′,O^5′-tri-acetyl-N^6-(3-hydroxylphenyl)adenosine]
FFA ([1]; 3 mg/kg intragastric): 1.04 ± 0.24 mmol/L
HDL-C ([1]; 3 mg/kg intragastric): 0.58 ± 0.10 mmol/L
HDL/LDL ([1]; 3 mg/kg intragastric): 0.43 ± 0.12
LDL-C ([1]; 3 mg/kg intragastric): 1.38 ± 0.27 mmol/L
TC ([1]; 3 mg/kg intragastric): 2.39 ± 0.34 mmol/L
TG ([1]; 3 mg/kg intragastric): 0.67 ± 0.15 mmol/L
FFA ([1]; 6 mg/kg intragastric): 0.94 ± 0.17 mmol/L
HDL-C ([1]; 6 mg/kg intragastric): 0.59 ± 0.18 mmol/L
HDL/LDL ([1]; 6 mg/kg intragastric): 0.52 ± 0.19
LDL-C ([1]; 6 mg/kg intragastric): 1.19 ± 0.18 mmol/L
TC ([1]; 6 mg/kg intragastric): 2.11 ± 0.24 mmol/L
TG ([1]; 6 mg/kg intragastric): 0.52 ± 0.13 mmol/L
effect on rats FFA ([1]; 6 mg/kg, in words): significant effect
FFA ([1]; 12 mg/kg intragastric): 0.97 ± 0.27 mmol/L
HDL-C ([1]; 12 mg/kg intragastric): 0.56 ± 0.10 mmol/L
HDL/LDL ([1]; 12 mg/kg intragastric): 0.47 ± 0.13
LDL-C ([1]; 12 mg/kg intragastric): 1.24 ± 0.20 mmol/L
TC ([1]; 12 mg/kg intragastric): 2.30 ± 0.29 mmol/L
TG ([1]; 12 mg/kg intragastric): 0.55 ± 0.19 mmol/L
HDL-C/LDL-C ([1]; after treatment, in words): increased
blood TC, TG and LDL-C ([1]; after treatment, in words): decreased
weight of rats' retroperitoneal fat ([2]; hyperlipidemia rats, after administration, in words): obviously decreased
Fat weight (retroperitoneal fat) ([2]; 3 mg/kg intragastric): 0.67 ± 0.33 g/100 g body weight
Fat weight (retroperitoneal fat) ([2]; 6 mg/kg intragastric): 0.67 ± 0.12 g/100 g body weight
Fat weight (retroperitoneal fat) ([2]; 12 mg/kg intragastric): 0.64 ± 0.22 g/100 g body weight
hepatic MDA ([3]; 3 mg/kg intragastric): 8.51 ± 3.32 nmol/mg protein
hepatic SOD ([3]; 3 mg/kg intragastric): 93.3 ± 37.5 U/g pr
hepatic MDA ([3]; 6 mg/kg intragastric): 8.71 ± 2.83 nmol/mg protein
hepatic SOD ([3]; 6 mg/kg intragastric): 102.0 ± 24.4 U/g pr
hepatic MDA ([3]; 12 mg/kg intragastric): 8.29 ± 2.78 nmol/mg protein
hepatic SOD ([3]; 12 mg/kg intragastric): 107.7 ± 26.4 U/g pr
hepatic SOD activity ([3]; after administration, in words): significantly increased
hepatic MDA content ([3]; in words): decreased
time blood-fat regulatory effect is sustained after withdrawal ([4]; hyperlipidemia rats): more than 2 weeks
serum TC content after withdrawal from drugs for 2 weeks ([4]; hyperlipidemia rats, in words): significantly lower than that of the model group
TC ([4]; 3 mg/kg): 2.12 ± 0.45 mmol/L
TG ([4]; 3 mg/kg): 1.04 ± 0.19 mmol/L
TC ([4]; 6 mg/kg): 2.02 ± 0.43 mmol/L
TG ([4]; 6 mg/kg): 1.03 ± 0.22 mmol/L
TC ([4]; 12 mg/kg): 2.15 ± 0.32 mmol/L
TG ([4]; 12 mg/kg): 1.01 ± 0.38 mmol/L
HDL-C ([5]; 3 mg/kg intragastric): 1.24 ± 0.26 mmol/L
HDL/LDL ([5]; 3 mg/kg intragastric): 0.37 ± 0.11
LDL-C ([5]; 3 mg/kg intragastric): 3.68 ± 1.44 mmol/L
TC ([5]; 3 mg/kg intragastric): 4.35 ± 0.93 mmol/L
TG ([5]; 3 mg/kg intragastric): 4.26 ± 1.52 mmol/L
HDL-C ([5]; 6 mg/kg intragastric): 1.14 ± 0.18 mmol/L
HDL/LDL ([5]; 6 mg/kg intragastric): 0.40 ± 0.09
LDL-C ([5]; 6 mg/kg intragastric): 3.00 ± 0.90 mmol/L
TC ([5]; 6 mg/kg intragastric): 4.19 ± 1.14 mmol/L
TG ([5]; 6 mg/kg intragastric): 3.67 ± 1.46 mmol/L
HDL-C ([5]; 12 mg/kg intragastric): 1.24 ± 0.40 mmol/L
HDL/LDL ([5]; 12 mg/kg intragastric): 0.59 ± 0.31
LDL-C ([5]; 12 mg/kg intragastric): 2.26 ± 0.47 mmol/L
TC ([5]; 12 mg/kg intragastric): 3.60 ± 1.84 mmol/L
TG ([5]; 12 mg/kg intragastric): 3.44 ± 1.29 mmol/L
blood TC, TG and LDL-C ([5]; after treatment, in words): decreased
rate HDL-C/LDL-C ([5]; after treatment, in words): increased
retroperitoneal fat ([6]; 3 mg/kg intragastric, 4 weeks): 1.26 ± 0.34 g/100g
retroperitoneal fat ([6]; 6 mg/kg intragastric, 4 weeks): 1.23 ± 0.23 g/100g
retroperitoneal fat ([6]; 12 mg/kg intragastric, 4 weeks): 1.31 ± 0.27 g/100g
retroperitoneal fat ([6]; after treatment, in words): decreased
hepatic MDA ([7]; 3 mg/kg intragastric): 4.8 ± 1.2 nmol/mg protein
hepatic SOD ([7]; 3 mg/kg intragastric): 84.0 ± 19.6 U/g pr
hepatic MDA ([7]; 6 mg/kg intragastric): 4.23 ± 0.72 nmol/mg protein
hepatic SOD ([7]; 6 mg/kg intragastric): 95.1 ± 31.6 U/g pr
hepatic MDA ([7]; 12 mg/kg intragastric): 4.6 ± 0.92 nmol/mg protein
hepatic SOD ([7]; 12 mg/kg intragastric): 91.9 ± 22.9 U/g pr
MDA concentration ([7]; in words): lower than the model group
TC ([8]; 3 mg/kg): 5.34 ± 1.32 mmol/L
TG ([8]; 3 mg/kg): 4.36 ± 1.27 mmol/L
serum lipid levels after drug discontinuance ([8]; 6 mg/kg): significantly lower
TC ([8]; 6 mg/kg): 5.02 ± 1.35 mmol/L
TG ([8]; 6 mg/kg): 4.16 ± 0.77 mmol/L
serum lipid levels after drug discontinuance ([8]; 12 mg/kg): significantly lower
TC ([8]; 12 mg/kg): 4.61 ± 1.11 mmol/L
TG ([8]; 12 mg/kg): 3.82 ± 0.66 mmol/L
time hypolipidemic effect lasted after drug discontinuance ([8]; hyperlipidemic hamsters): ≥ 2 weeks
ALT ([9]; 3 mg/kg intragastric): 100.7 ± 38.2 U/L
ALT ([9]; 6 mg/kg intragastric): 91.7 ± 23.1 U/L
ALT ([9]; 12 mg/kg intragastric): 95.2 ± 34.8 U/L
serum ALT activity ([9]; text of hamster Example 3 says 'hyperlipidemic rats', in words): slightly reduced
Liver weight ([10]; 'rat' in hamster Table 9, 3 mg/kg intragastric): 3.22 ± 0.48 g/100 g body weight
Liver weight ([10]; 'rat' in hamster Table 9, 6 mg/kg intragastric): 3.21 ± 0.38 g/100 g body weight
Liver weight ([10]; 'rat' in hamster Table 9, 12 mg/kg intragastric): 3.26 ± 0.54 g/100 g body weight
Liver weight [10, 11]: 3.22 ± 0.48 g/100 g body weight
serum ALT [10, 11]: 42.9 ± 13.7 U/L
Liver weight [10, 12]: 3.21 ± 0.38 g/100 g body weight
serum ALT [10, 12]: 41.6 ± 19.8 U/L
Liver weight [10, 13]: 3.26 ± 0.54 g/100 g body weight
serum ALT [10, 13]: 42.0 ± 16.6 U/L
